Experimental data published in PubChem BioAssay AID504816 (The Scripps Research Institute Molecular Screening Center, 2011).
Calls of active or inactive are those of the source.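 Rule for the calls: active = compounds that boost mutant procaspase-3 substrate cleavage with EC50 of 10000 nM or lower; inactive = EC50 above 10000 nM.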

Target: Caspase-3 (Homo sapiens) (UniProt P42574)
Assay: procaspase-3 activation potency, probe candidates – biochemical, absorbance, PC-3 D3A mutant, powder samples, late-stage follow-up (AID 504816)
Details: recombinant PC-3 D3A, Ac-DEVD-pNA absorbance 405 nm

Chain of Caspase-3 (Homo sapiens) (P42574 whole entry D9A/D28A/D175A): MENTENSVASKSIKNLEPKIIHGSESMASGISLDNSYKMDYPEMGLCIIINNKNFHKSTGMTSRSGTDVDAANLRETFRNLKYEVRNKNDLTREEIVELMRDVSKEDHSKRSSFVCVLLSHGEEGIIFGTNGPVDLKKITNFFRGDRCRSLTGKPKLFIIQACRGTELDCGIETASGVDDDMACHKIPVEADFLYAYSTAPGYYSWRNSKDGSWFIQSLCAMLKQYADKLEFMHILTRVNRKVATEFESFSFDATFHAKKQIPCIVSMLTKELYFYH

Row | EC50 | Structure (SMILES)
1 | > 85.3 µM (inactive) | COc1ccccc1Nc1nc2c(C)cccc2cc1C#N
2 | 3.19 µM | C=CCn1c(=NC(=O)c2cc(-c3cccs3)nc3ccccc23)sc2cc(S(N)(=O)=O)ccc21
3 | inactive | CC(=O)Oc1cccc2c1C(=O)c1c(OC(C)=O)cc(C(=O)O)cc1C2=O
4 | inactive | CC(NC(=O)c1cc2cc([N+](=O)[O-])ccc2oc1=O)C1CCCO1 (centres undefined)
